Test results: patent US20250195513A1, “DEGRADATION OF IRAK4 BY CONJUGATION OF IRAK4 INHIBITORS WITH E3 LIGASE LIGAND AND METHODS OF USE” (BeiGene, Ltd., priority 2022, published 2025)

How the values were obtained:
Format in all cases: cell-based
IRAK4 [1] = biological target: T1, IRAK4 (Homo sapiens, UniProt Q9NWZ3); test: IRAK4 Degradation Assay (Karpas299, HTRF/TR-FRET); settings: Karpas-299 cells; for Dmax: maximum percentage of degradation
T1 construct: endogenous in cells; host or cells: Karpas299
T1 sequence (Q9NWZ3 1-460): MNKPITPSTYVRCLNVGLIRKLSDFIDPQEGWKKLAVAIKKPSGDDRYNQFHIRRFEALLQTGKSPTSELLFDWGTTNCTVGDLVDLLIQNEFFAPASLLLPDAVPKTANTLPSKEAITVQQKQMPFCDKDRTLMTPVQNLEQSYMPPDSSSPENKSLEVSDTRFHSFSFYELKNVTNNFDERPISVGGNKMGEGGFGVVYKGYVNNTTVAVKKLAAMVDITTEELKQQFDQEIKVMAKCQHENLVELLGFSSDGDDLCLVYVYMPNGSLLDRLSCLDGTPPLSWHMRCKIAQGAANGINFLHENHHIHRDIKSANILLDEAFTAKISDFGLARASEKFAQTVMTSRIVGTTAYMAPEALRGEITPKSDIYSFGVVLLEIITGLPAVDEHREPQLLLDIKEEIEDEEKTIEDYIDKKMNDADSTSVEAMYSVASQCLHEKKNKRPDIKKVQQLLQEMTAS
Outline: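 Compound potency as DC50 (IC50) came from four-parameter fits of percent IRAK4 degradation. IRAK4 was measured by HTRF (665/620 nm) in lysates of Karpas299 cells seeded at 0.2 million per well. Cells had been treated with compound dilutions for 5 or 24 h.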

[2] = test system: IL-6 production in human PBMC; test: IL-6 Production Assay in Human PBMC (LPS stimulated); settings: Homo sapiens, 5 h; for Emax: maximum inhibition, read-out: IL-6 (PBMC) 5 h IMax
Protocol: Frozen human PBMC (AllCells) were thawed in RPMI 1640 medium (Thermo Scientific) supplemented with 10% heat-inactivated FBS (Thermo Scientific) and recovered at 37° C. overnight. The next day, PBMC were seeded into 96-well plates at the density of 0.2 million cells per well and treated with compounds for 24 h. Then lipopolysaccharide was added at the final concentration of 10 ng/mL for 5 h. Culture supernatant was collected for subsequent measurement of IL-6 concentration by a TR-FRET-based method (Degorce, François, et al. Current chemical genomics. 2009, 3: 22) as described by the manufacturer manual (Cisbio). FRET signals were measured with PHERAstar FSX reader (BMG Labtech).

[3] = test system: TNF-α production in THP-1 cells; test: TNF-α Production Assay in THP-1 Cells (LPS stimulated); settings: Homo sapiens, THP-1, 24 h; for Emax: maximum inhibition, read-out: TNF-α (THP-1) 24 h IMax
Outline: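 Cells (0.2 million/well) pretreated with compounds for 24 h, then stimulated with LPS at 1 μg/mL final for 24 h. TNF-α in culture supernatant quantified by TR-FRET immunoassay.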

IRAK4 [4] = biological target: T1, IRAK4; test: IRAK4 Degradation Assay with Human Serum (Karpas299, HTRF/TR-FRET); settings: Karpas-299 in human serum, 24 hrs treatment; for DC50: read-out: IRAK4 degradtion with human serum assay DC50; for Dmax: read-out: IRAK4 degradtion with human serum assay Dmax (%)
Outline: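 Remaining IRAK4 measured by TR-FRET immunoassay on lysates of Karpas299 cells exposed 24 h to compound dilution series in human serum AB. DC50 derived from a Hill-slope fit of % degradation versus concentration.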

[5] = 24 h treatment, read-out: IRAK4 in Karpas-299 (24 h) Dmax (%)
[6] = 24 h treatment, read-out: IRAK4 in Karpas-299 (24 h) DC50
[7] = 5 h treatment, read-out: IRAK4 in Karpas-299 (5 h) Dmax (%)
[8] = 5 h treatment, read-out: IRAK4 in Karpas-299 (5 h) DC50

## COC[C@H]1CN(CCc2cc(F)c([C@H]3CCC(=O)NC3=O)c(F)c2)CCN1[C@H]1CC[C@H](n2cc3cc(NC(=O)c4ccc5cc(C#N)cnn45)c(C(C)(C)O)cc3n2)CC1 [Example 321, 3-cyano-N-(2-((1R,4r)-4-((R)-4-(4-((R)-2,6-dioxopiperidin-3-yl)-3,5-difluorophenethyl)-2-(methoxymethyl)piperazin-1-yl)cyclohexyl)-6-(2-hydroxypropan-2-yl)-2H-indazol-5-yl)pyrrolo[1,2-b]pyridazine-7-carboxamide]
IRAK4 [1]; [5]
  Dmax: 96%
IRAK4 [1]; [6]
  DC50: 1.4 nM
[2]
  IC50: 0.4 nM
  Emax: 58%
[3]
  IC50: 55 nM
  Emax: 77%
IRAK4 [4]
  DC50: 5.5 nM
  Dmax: 98%

## COC[C@H]1CN(CC2CN(c3cc(F)c([C@H]4CCC(=O)NC4=O)c(F)c3)C2)CCN1[C@H]1CC[C@H](n2cc3cc(NC(=O)c4ccc5cc(C#N)cnn45)c(C(C)(C)O)cc3n2)CC1 [Example 322, 3-cyano-N-(2-((1R,4r)-4-((R)-4-((1-(4-((R)-2,6-dioxopiperidin-3-yl)-3,5-difluorophenyl)azetidin-3-yl)methyl)-2-(methoxymethyl)piperazin-1-yl)cyclohexyl)-6-(2-hydroxypropan-2-yl)-2H-indazol-5-yl)pyrrolo[1,2-b]pyridazine-7-carboxamide]
IRAK4 [1]; [7]
  Dmax: 98%
IRAK4 [1]; [8]
  DC50: 12 nM
IRAK4 [1]; [5]
  Dmax: 97%
IRAK4 [1]; [6]
  DC50: 0.7 nM
[2]
  IC50: 9.7 nM
  Emax: 81%
[3]
  IC50: 42 nM
  Emax: 94%
IRAK4 [4]
  DC50: 19 nM
  Dmax: 101%

## C[C@@H]1CN(CCc2cc(F)c([C@H]3CCC(=O)NC3=O)c(F)c2)CCN1[C@H]1CC[C@H](n2cc3cc(NC(=O)c4ccc5cc(C#N)cnn45)c(C(C)(C)O)cc3n2)CC1 [Example 299, 3-cyano-N-(2-((1R,4r)-4-((R)-4-(4-((R)-2,6-dioxopiperidin-3-yl)-3,5-difluorophenethyl)-2-methylpiperazin-1-yl)cyclohexyl)-6-(2-hydroxypropan-2-yl)-2H-indazol-5-yl)pyrrolo[1,2-b]pyridazine-7-carboxamide]
IRAK4 [1]; [5]
  Dmax: 98%
IRAK4 [1]; [6]
  DC50: 0.8 nM
[2]
  IC50: 4 nM
  Emax: 74%
[3]
  IC50: 43 nM
  Emax: 94%
IRAK4 [4]
  DC50: 4.8 nM
  Dmax: 99%

## CC(C)(O)c1cc2nn([C@H]3CC[C@H](N4CCN(C(=O)C5CN(c6cc(F)c([C@H]7CCC(=O)NC7=O)c(F)c6)C5)CC4)CC3)cc2cc1NC(=O)c1ccc2cc(C#N)cnn12 [Example 178, 3-cyano-N-(2-((1r,4r)-4-(4-(1-(4-((R)-2,6-dioxopiperidin-3-yl)-3,5-difluorophenyl)azetidine-3-carbonyl)piperazin-1-yl)cyclohexyl)-6-(2-hydroxypropan-2-yl)-2H-indazol-5-yl)pyrrolo[1,2-b]pyridazine-7-carboxamide]
IRAK4 [1]; [7]
  Dmax: 97%
IRAK4 [1]; [8]
  DC50: 0.6 nM
IRAK4 [1]; [5]
  Dmax: 98%
IRAK4 [1]; [6]
  DC50: 0.4 nM
[2]
  IC50: 1.2 nM
  Emax: 61%
[3]
  IC50: 6.4 nM
  Emax: 92%
IRAK4 [4]
  DC50: 17 nM
  Dmax: 100%

## NC(=O)c1nn([C@H]2CC[C@H](N3CCN(C(=O)[C@@H]4CCN(c5cc(F)c([C@H]6CCC(=O)NC6=O)c(F)c5)C4)CC3)CC2)cc1NC(=O)c1coc(-c2ccnc(NCC(F)(F)F)c2)n1 [Example 12, N-(3-carbamoyl-1-((1R,4r)-4-(4-((R)-1-(4-((R)-2,6-dioxopiperidin-3-yl)-3,5-difluorophenyl)pyrrolidine-3-carbonyl)piperazin-1-yl)cyclohexyl)-1H-pyrazol-4-yl)-2-(2-((2,2,2-trifluoroethyl)amino)pyridin-4-yl)oxazole-4-carboxamide]
IRAK4 [1]; [7]
  Dmax: 97%
IRAK4 [1]; [8]
  DC50: 5.4 nM
IRAK4 [1]; [5]
  Dmax: 98%
IRAK4 [1]; [6]
  DC50: 1.8 nM
[2]
  IC50: 4.6 nM
  Emax: 91%
[3]
  IC50: 25 nM
  Emax: 90%
